In patent US4251520A, “Glucofuranose derivatives” (priority 1976, dated 1981):

What was measured:
[1] = Analgesic activity, hot plate test; assay type: in vivo, mouse; settings: po; 500 mg/kg p.o. mouse; hot plate test; read-out: Analgesic activity, increase of reaction time %
Protocol: (§1) Pharmacological tests were carried out to evaluate the acute toxicity, anti-inflammatory and capillary permeability action, antipyretic, analgesic and anti-spasmodic in vitro action.

[2] = system: granuloma; test: Granuloma cotton pellet test; settings: for inhibition in vivo at 200 mg/kg: Rattus norvegicus, po, read-out: % inhibition of granuloma
Protocol: as §1

[3] = system: edema induced by formalin; test: Anti-inflammatory activity, formalin-induced edema; assay type: in vivo, rat; settings: po; 500 mg/kg p.o. rat; read-out: % inhibition of edema induced by formalin
Protocol: as §1

[4] = system: spasm by histamine; test: Antispasmodic activity in vitro, spasm by histamine
Protocol: as §1

[5] = in vivo; settings: mouse, in vivo, po
[6] = system: oedema induced by carrageenin, dextran and formalin; test: Anti-inflammatory activity tests (oedema by carrageenin, dextran and formalin); assay type: in vivo; settings: rat
Protocol: as §1

[7] = system: edema induced by carrageenan; test: Anti-inflammatory activity, carrageenin-induced oedema; assay type: in vivo, rat; settings: po; 500 mg/kg p.o. rat; read-out: % inhibition of edema induced by carrageenan
From the text: Beginning, therefore, with D-glucose, we have prepared 1,2:5,6-di-O-isopropylidene-α-D-glucofuranose (II): [drawing 2] as well as 1,2-O-isopropylidene-α-D-glucofuranose and 1,2-O-isopropylidene-3,5,6-tri-O-benzyl-α-D-glucofuranose (1; Glen W. L., Myers G. S., Grant G. A., J. Chem. Soc., 2568/1951; (2) Meyer A. S., Reichstein T., Helv. Chim. Acta, 29, 139/1946; (3) Huber G., Rossi A., Helv. Chim. Acta, 51, 1185/1968) and have compared these compounds with (I) for anti-inflammatory activity against carrageenin-induced oedema (500 mg/kg, p.o. in rats).

[8] = Antipyretic activity; assay type: in vivo, rat; settings: for Antipyretic activity (potency in comparison with aspirin = 100): 400 mg/kg p.o. rat; for Antipyretic action (in words): rat, in vivo
Protocol: as §1

[9] = system: capillary permeability; test: Capillary permeability test; settings: 500 mg/kg p.o. mouse
Protocol: as §1

[10] = system: spasm by acetylcholine; test: Antispasmodic activity in vitro, spasm by acetylcholine
Protocol: as §1

[11] = system: edema induced by dextran; test: Anti-inflammatory activity, dextran-induced edema; assay type: in vivo, rat; settings: po; 500 mg/kg p.o. rat; read-out: % inhibition of edema induced by dextran
Protocol: as §1

[12] = Analgesic activity, protection from writhing; assay type: in vivo, mouse; settings: po; 500 mg/kg p.o. mouse; read-out: Analgesic activity, protection from writhing %
Protocol: as §1

SMILES | change in vivo at 500 mg/kg [1] | inhibition in vivo at 200 mg/kg [2] | inhibition in vivo at 500 mg/kg [3] | Antispasmodic activity in vitro, ED50, inhib. of spasm by histamine [4] | LD50 [5] | Anti-inflammatory potency compared with aspirin and phenylbutazone (in words) [6] | Inhibition of oedema induced by carrageenin, dextran and formalin, compared with (I) (in words) [6] | inhibition in vivo at 500 mg/kg [7] | Antipyretic activity (potency in comparison with aspirin = 100) [8] | Antipyretic action (in words) [8] | Capillary permeability, decrease % [9] | Antispasmodic activity in vitro, ED50, inhib. of spasm by acetylcholine [10] | inhibition in vivo at 500 mg/kg [11] | inhibition in vivo at 500 mg/kg [12] | Inhibitory activity in the granuloma cotton pellet test (in words) ([2]; rat, in vivo) | Inhibition of spasms induced by histamine (in words) [4] | Activity against spasms produced by acetylcholine (in words) [10]
COC1C(C2COC(C)(C)O2)OC2OC(C)(C)OC21 (centres unmarked) [III] | 20% | 0% | 25% | 100 µg/mL | 2000 mg/kg | as potent as or more potent than aspirin and phenylbutazone | clearly more active than (I) | 51% | 70% | retained | 37% | > 100 µg/mL | 35% | 20% |  |  | 
CCOC1C(C2COC(C)(C)O2)OC2OC(C)(C)OC21 (centres unmarked) [IV] | 30% |  | 33% | 150 µg/mL | 2000 mg/kg |  |  | 37% | 31% |  | 42% | > 100 µg/mL | 14% | 0% |  |  | 
CCCCCOC1C(C2COC(C)(C)O2)OC2OC(C)(C)OC21 [VII, 3-n-Pentyl-1,2:5,6-di-O-isopropylidene-α-D-glucofuranose] | 0% | 19% | 48% | > 100 µg/mL | 4000 mg/kg | as potent as or more potent than aspirin and phenylbutazone | clearly more active than (I) | 62% | 0% |  | 4% | > 100 µg/mL | 31% | 20% | some inhibitory activity |  | 
CCCCOC1C(C2COC(C)(C)O2)OC2OC(C)(C)OC21 (centres unmarked) [VI] | 40% |  | 24% | > 100 µg/mL | 3000 mg/kg |  |  | 33% | 51% | retained | 57% | > 100 µg/mL | 13% | 0% |  |  | 
CCCOC1C(C2COC(C)(C)O2)OC2OC(C)(C)OC21 (centres unmarked) [V] | 10% |  | 0% | > 100 µg/mL | 1000 mg/kg |  |  | 28% | 37% |  | 53% | > 100 µg/mL | 0% | 20% |  |  | 
CC1(C)OCC(C2OC3OC(C)(C)OC3C2OCC(=O)O)O1 [XIII, 3-Carboxymethyl-1,2:5,6-di-O-isopropylidene-α-D-glucofuranose] | 0% |  | 18% | > 100 µg/mL | > 4000 mg/kg |  |  | 10% | 5% |  | 14% | > 100 µg/mL | 4% | 0% |  |  | 
CN(C)CCOC1C(C2COC(C)(C)O2)OC2OC(C)(C)OC21 [XIV, 3-(2-Dimethylaminoethyl)-1,2:5,6-di-O-isopropylidene-α-D-glucofuranose] | 10% | 0% | 28% | 100 µg/mL | 1500 mg/kg |  |  | 62% | 43% | retained | 35% | > 100 µg/mL | 54% | 20% |  |  | 
CC1(C)OCC(C2OC3OC(C)(C)OC3C2OCCN2CCCCC2)O1 (centres unmarked) [XIX] |  |  | 28% |  | > 1000 mg/kg |  |  | 64% | 55% | retained | 17% |  | 56% |  |  |  | 
CC1(C)OCC(C2OC3OC(C)(C)OC3C2OCCN2CCCC2)O1 (centres unmarked) [XVIII] | 10% | 0% | 38% | 100 µg/mL | 1500 mg/kg |  |  | 68% | 0% |  | 50% | > 100 µg/mL | 64% | 0% |  |  | 
CC(C)N(CCOC1C(C2COC(C)(C)O2)OC2OC(C)(C)OC21)C(C)C (centres unmarked) [XVII] | 0% | 0% | 32% | 70 µg/mL | 1000 mg/kg |  |  | 73% | 15% |  | 32% | 100 µg/mL | 35% | 40% |  |  | 
CCCN(CCC)CCOC1C(C2COC(C)(C)O2)OC2OC(C)(C)OC21 (centres unmarked) [XVI] | 0% | 0% | 24% | 12 µg/mL | 750 mg/kg |  |  | 23% | 29% |  |  | 100 µg/mL | 41% | 0% |  | inhibited spasms induced by histamine at relatively low concentrations | 
CCN(CC)CCOC1C(C2COC(C)(C)O2)OC2OC(C)(C)OC21 (centres unmarked) [XV] | 10% | 0% | 4% | 100 µg/mL | 3000 mg/kg |  |  | 60% | 8% |  | 20% | > 100 µg/mL | 58% | 0% |  |  | 
CC1(C)OCC(C2OC3OC(C)(C)OC3C2OCCN(Cc2ccccc2)Cc2ccccc2)O1 (centres unmarked) [XXI] | 0% |  | 19% |  | > 2000 mg/kg |  |  | 29% | 25% |  |  |  | 17% | 60% |  |  | 
CC1(C)OCC(C2OC3OC(C)(C)OC3C2OCCN2CCOCC2)O1 (centres unmarked) [XX] | 40% | 0% | 43% | > 100 µg/mL | 1500 mg/kg |  |  | 59% | 14% |  | 58% | > 100 µg/mL | 65% | 0% |  |  | 
C#CCOC1C(C2COC(C)(C)O2)OC2OC(C)(C)OC21 (centres unmarked) [X] | 0% | 0% | 36% | 50 µg/mL | 1500 mg/kg | as potent as or more potent than aspirin and phenylbutazone | clearly more active than (I) | 53% | 107% | retained |  | 50 µg/mL | 65% | 20% |  |  | moderately active
